The text below walks through data of ChEMBL document CHEMBL1201862, “PubChem BioAssay data set” (2004).

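Protocol summary: plate cells (96-well), add compound at 5 concentrations, incubate 48 h, interpolate endpoints linearly. The concentration for 50% growth inhibition is given as GI50.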 The source made the active and inactive calls. Rule as the data show it: active = GI50 up to about 1.1 µM and inactive = higher.

Some test systems named below: UO-31; NCI/ADR-RES; UACC-62; IGROV-1; HCT-15; Hs-578T; NCI-H23; SN12C; HL-60; SF-295; HT-29; TK-10; KM12; SR; A549; SNB-19; U-251; SW-620; HOP-92; SK-MEL-5.
Common to all, as to test: inhibition of tumour cell growth, NCI panel, 48 h

For `O=C(O)CSc1ccc([N+](=O)[O-])cc1[N+](=O)[O-]`, the GI50 was > 100 µM (inactive) in the assay on UO-31; > 100 µM (inactive) in the assay with NCI/ADR-RES; > 100 µM (inactive) in the assay on UACC-62; > 100 µM (inactive) in the assay with IGROV-1; more than 100 µM in the assay on HCT-15; > 100 µM (inactive) in the assay with Hs-578T. For the same compound, the GI50 in the assay on NCI-H23, in the assay with SN12C, with HL-60, in the assay on SF-295, in the assay on HT-29 and in the assay on TK-10 was > 100 µM (inactive) in each case. Also, the GI50 in the assay with KM12, in the assay with SR, in the assay with A549, in the assay on SNB-19, in the assay with U-251 and with SW-620 was > 100 µM (inactive) throughout. Moreover, the GI50 in the assay with HOP-92 is > 100 µM (inactive).
In the case of `C[C@]1(O)CC[C@H]2[C@@H]3CCc4cc(O)ccc4[C@H]3CC[C@@]21C`, the GI50 in the assay with UO-31 is 8.32 µM (inactive); in the assay on NCI/ADR-RES, 1.99 µM (inactive); with IGROV-1, 0.735 µM (active); with HCT-15 it was 1.15 µM; in the assay with Hs-578T, 1.19 µM (inactive); with SK-MEL-5, 0.391 µM (active). The GI50 was 3.03 µM (inactive) in the assay on NCI-H23; 0.362 µM (active) in the assay on HL-60; 1.48 µM (inactive) in the assay with SF-295; 6.7 µM (inactive) in the assay with HT-29; 0.826 µM (active) in the assay on TK-10; 0.308 µM (active) with KM12. Besides, the GI50 in the assay on SR was 0.21 µM (active); in the assay on A549, 3.94 µM (inactive); with SNB-19 it was 92.3 µM (inactive); in the assay with U-251 it was 4.03 µM (inactive); with SW-620, 0.568 µM (active); with HOP-92 it was 6.95 µM (inactive).
As to `COC(=O)C1=C(C(=O)OC)SC2(S1)C1=C(CCCC1)SC(C(=O)OC)=C2C(=O)OC`, the GI50 in the assay with UO-31 was 4.58 µM (inactive); with NCI/ADR-RES, 17.9 µM (inactive); with UACC-62, 12.7 µM (inactive); with IGROV-1, 8.32 µM (inactive); with HCT-15, 4.39 µM; with Hs-578T it was 15.9 µM (inactive). For the same compound, the GI50 was 10.1 µM (inactive) in the assay on SK-MEL-5; 15.8 µM (inactive) in the assay with NCI-H23; 2.76 µM (inactive) with SN12C; 2.91 µM (inactive) in the assay with HL-60; 14.6 µM (inactive) in the assay on SF-295; 2.84 µM (inactive) with HT-29. The GI50 in the assay with TK-10 was 10.9 µM (inactive); in the assay with KM12, 5.74 µM (inactive); in the assay with A549 it was 14.6 µM (inactive); with SNB-19, 14.5 µM (inactive); in the assay on U-251, 6.67 µM (inactive); in the assay with SW-620, 2.09 µM (inactive). Also, in the assay with HOP-92, the GI50 was 7.82 µM (inactive).
In the case of `COc1ccc(OC)c(C23CCCC(C2)N(C)CC3)c1` (stereo not drawn), the GI50 with UO-31 is 28.6 µM (inactive); in the assay with NCI/ADR-RES it was 60.3 µM (inactive); in the assay with UACC-62, 20.9 µM (inactive); with HCT-15, 34 µM; in the assay with Hs-578T, 38.1 µM (inactive); in the assay on NCI-H23, 32.1 µM (inactive). Besides, the GI50 is 28.2 µM (inactive) in the assay with SN12C; 38.5 µM (inactive) in the assay on SF-295; 14.9 µM (inactive) with HT-29; 40.3 µM (inactive) with TK-10; 18.4 µM (inactive) in the assay on KM12; 18.4 µM (inactive) with SR. For the same compound, the GI50 in the assay on A549 was 22.3 µM (inactive); in the assay with SNB-19, 6.75 µM (inactive); in the assay with U-251 it was 11.7 µM (inactive).
Turning to `O=c1c2c3c(sc2nc2n1NC=NN2)CCCC3`, the GI50 in the assay with UO-31 is > 44.7 µM (inactive); with NCI/ADR-RES, 26.7 µM (inactive); in the assay on UACC-62, 17.6 µM (inactive); with IGROV-1, 26.6 µM (inactive); in the assay with HCT-15 it was 17.4 µM; in the assay on Hs-578T, 21.8 µM (inactive). In addition, the GI50 with SK-MEL-5 was 16.4 µM (inactive); with NCI-H23, 26.2 µM (inactive); with SN12C it was 17.9 µM (inactive); with HL-60, 1.2 µM (inactive); in the assay on SF-295, 15.8 µM (inactive); in the assay with HT-29 it was 17.5 µM (inactive). Further, the GI50 is 24 µM (inactive) in the assay with TK-10; 18.1 µM (inactive) with KM12; > 83.4 µM (inactive) in the assay with A549; 42.7 µM (inactive) in the assay with SNB-19; 16 µM (inactive) with U-251; 17.6 µM (inactive) with SW-620. In addition, the GI50 in the assay on HOP-92 is 18.1 µM (inactive).
Consider `O=CC1OC(=O)c2cc(O)c(O)c(O)c2-c2c(cc(O)c(O)c2O)C(=O)OC1C(O)C(O)CO` (stereo not drawn), for which the GI50 in the assay with UO-31 is > 100 µM (inactive); in the assay on NCI/ADR-RES, 76.9 µM (inactive); with IGROV-1, > 100 µM (inactive); with HCT-15 it was 69.2 µM; with Hs-578T, 54 µM (inactive); in the assay with SK-MEL-5, 51.6 µM (inactive). Besides, the GI50 in the assay on NCI-H23 was > 100 µM (inactive); in the assay on SN12C, 28.5 µM (inactive); with HL-60 it was 35.4 µM (inactive); with SF-295, 27.9 µM (inactive); in the assay with HT-29 it was 22 µM (inactive); in the assay on TK-10, 19.5 µM (inactive). Also, the GI50 in the assay on KM12 is 41.5 µM (inactive); with SR, 20.6 µM (inactive); with A549 it was 49.8 µM (inactive); in the assay on SNB-19, > 100 µM (inactive); with U-251, 17.9 µM (inactive); in the assay on SW-620 it was 17.1 µM (inactive). Besides, in the assay with HOP-92, the GI50 was > 100 µM (inactive).
In the case of `COC(=O)c1ccc(/C=C2\Cc3ccccc3C2=O)cc1`, the GI50 with UO-31 is > 100 µM (inactive); with NCI/ADR-RES, > 100 µM (inactive); with UACC-62, > 100 µM (inactive); in the assay with HCT-15, more than 100 µM; in the assay on Hs-578T, > 100 µM (inactive); in the assay on SK-MEL-5, > 100 µM (inactive). For the same compound, the GI50 in the assay with NCI-H23, in the assay with SN12C, in the assay with HL-60, with SF-295, with HT-29 and in the assay with TK-10 was > 100 µM (inactive) in each case. For the same compound, the GI50 with KM12, with SR, in the assay with A549, with SNB-19, in the assay with U-251 and in the assay with SW-620 was > 100 µM (inactive) each time.
As for `CC1=NN=C(N)N/C1=C/C(Sc1ccc(Cl)cc1)c1cccs1` (stereo not drawn), the GI50 was 4.45 µM (inactive) with UO-31; 18.5 µM (inactive) with NCI/ADR-RES; > 10 µM (inactive) with UACC-62; 11.4 µM (inactive) with IGROV-1; 6.12 µM in the assay on HCT-15; 17 µM (inactive) in the assay on Hs-578T. For the same compound, the GI50 is 11.5 µM (inactive) with SK-MEL-5; 13.9 µM (inactive) in the assay with NCI-H23; 26.8 µM (inactive) in the assay with SN12C; 4.07 µM (inactive) in the assay on HL-60; 11.7 µM (inactive) in the assay with SF-295; 12.3 µM (inactive) with HT-29. The GI50 was 36.2 µM (inactive) with TK-10; 11.1 µM (inactive) with KM12; 10.3 µM (inactive) in the assay with A549; 16.7 µM (inactive) with SNB-19; 24.5 µM (inactive) with U-251; 15.9 µM (inactive) with SW-620. The GI50 in the assay on HOP-92 was 28.1 µM (inactive).
Consider `COc1cc(/C=N/NC(=O)c2c(Cl)c(Cl)c(Cl)c(Cl)c2-c2nc3cc(C(=O)c4ccccc4)ccc3[nH]2)ccc1O`, for which the GI50 is 45.6 µM (inactive) in the assay with UO-31; 20.9 µM (inactive) in the assay on NCI/ADR-RES; 47.6 µM (inactive) in the assay with IGROV-1; 15.6 µM in the assay on HCT-15; 60 µM (inactive) with Hs-578T; 20.4 µM (inactive) in the assay on SK-MEL-5. In addition, the GI50 with NCI-H23 was 28.4 µM (inactive); with SN12C, 36.5 µM (inactive); in the assay on HL-60 it was 19.2 µM (inactive); with SF-295, 29.9 µM (inactive); in the assay on HT-29, 40.1 µM (inactive); with TK-10, 45.5 µM (inactive). Further, the GI50 in the assay with KM12 was 46.5 µM (inactive); with SR it was 11.5 µM (inactive); with A549, 42.1 µM (inactive); with SNB-19 it was 62.1 µM (inactive); in the assay with U-251, 35.4 µM (inactive); with SW-620, 34.5 µM (inactive). Further, the GI50 with HOP-92 was 76.9 µM (inactive).
In the case of `O=C1Sc2ccccc2NC1=C(C(=O)c1ccccc1)C(=O)c1ccccc1`, the GI50 in the assay with UO-31 was 29.9 µM (inactive); in the assay on NCI/ADR-RES it was 22.3 µM (inactive); in the assay on UACC-62, 27 µM (inactive); in the assay with IGROV-1, 38.4 µM (inactive); in the assay on HCT-15, 19.5 µM; in the assay on Hs-578T, 62.5 µM (inactive). Moreover, the GI50 was 16.8 µM (inactive) in the assay on SK-MEL-5; 22.6 µM (inactive) with NCI-H23; 18.2 µM (inactive) in the assay with SN12C; 1.87 µM (inactive) in the assay on HL-60; 20.6 µM (inactive) in the assay with SF-295; 22.5 µM (inactive) in the assay on HT-29. Moreover, the GI50 in the assay on TK-10 was 26.1 µM (inactive); in the assay on KM12, 31.6 µM (inactive); in the assay on A549 it was 27.5 µM (inactive); with SNB-19, 33 µM (inactive); in the assay on U-251, 16 µM (inactive); with SW-620, 30.2 µM (inactive). For the same compound, the GI50 with HOP-92 is 36.6 µM (inactive).
As for `CN(C)c1nc2n(CCO)ccnc-2c(=O)n1`, the GI50 in the assay with UO-31 is > 100 µM (inactive); in the assay on NCI/ADR-RES, > 100 µM (inactive); with UACC-62, > 100 µM (inactive); with IGROV-1 it was > 100 µM (inactive); in the assay with HCT-15, more than 100 µM; in the assay with Hs-578T, > 100 µM (inactive). The GI50 with SK-MEL-5, in the assay on NCI-H23, in the assay on SN12C, with SF-295, in the assay with HT-29 and with TK-10 was > 100 µM (inactive) each time. In addition, the GI50 in the assay with KM12, with SR, in the assay with A549, in the assay with SNB-19, in the assay on U-251 and with SW-620 was > 100 µM (inactive) in each case. The GI50 with HOP-92 is > 100 µM (inactive).
